From PMC5071873, “The Effects of Puerarin on Rat Ventricular Myocytes and the Potential Mechanism” (Scientific Reports, 2016)

Assays:
Format in all cases: cell-based
Kv7.1 [1] = target: T1, Kv7.1 (Homo sapiens, UniProt P51787); assay: Single-channel inside-out patch clamp recording of Kv7.1; conditions: 293B applied after puerarin 100 μM
T1 construct: expressed in transfected cells; host or cells: HEK293
Procedure: (§1) The Tyrode’s solution contained (mM): 126 NaCl, 5.4 KCl, 1.8 CaCl2, 1 MgCl2, 0.33 NaH2PO4, 10 HEPES and 10 glucose, pH 7.4 (adjusted with NaOH). The Ca^2+-free Tyrode’s solution was prepared by removing CaCl2 from the Tyrode’s solution. The Kreb’s solution used for cell storage contained (mM): 70 glutamic acid, 30 KCl, 15 taurine, 0.5 MgCl2, 10 KH2PO4, 0.5 EGTA, 10 HEPES, 10 glucose, and 1% albumin, pH 7.4 (adjusted with KOH). The enzyme solution used for the rat cardiomyocyte isolation contained 0.08 g/L collagenase (type II) and 1.0 g/L BSA in Kreb’s solution. For action potential recording on cardiomyocyte, the pipette solution contained (mM): 100 potassium aspartate, 30 KCl, 1 MgCl2, 5 Mg-ATP, 5 EGTA, 5 HEPES, pH 7.3 (adjusted with KOH); the Tyrode’s solution was used as the standard bath solution. For whole-cell recording of IKs on myocytes, the pipette solution contained (mM): 125 potassium aspartate, 20 KCl, 1 MgCl2, 5 Mg-ATP, 10 EGTA, 5 HEPES, pH 7.3 (adjusted with KOH); the bath solution contained (mM): 132 NaCl, 4 KCl, 1.8 CaCl2, 1.2 MgCl2, 10 HEPES, 5 glucose, pH 7.4 (adjusted with NaOH). […]
(§2) Single-channel activity was recorded at a series of holding levels ranging from 10 mV of 50 mV. […] Single-channel events were listed and analysed by pclampfit 9.0 (single-channel search-in-analyse function). […]

IKs channel = target: T2, IKs channel (Homo sapiens, UniProt P51787); assay: Single-channel inside-out patch clamp recording of IKs; conditions: 293B applied after puerarin 100 μM
T2 construct: expressed in transfected cells; host or cells: HEK293
Procedure: as §1, §2

Kv7.1 [2] = target: T1, Kv7.1; assay: Whole-cell patch clamp of Kv7.1 currents (voltage steps) in transfected HEK293 cells; conditions: activator alone, HEK293
Procedure: (§3) The Tyrode’s solution contained (mM): 126 NaCl, 5.4 KCl, 1.8 CaCl2, 1 MgCl2, 0.33 NaH2PO4, 10 HEPES and 10 glucose, pH 7.4 (adjusted with NaOH). The Ca^2+-free Tyrode’s solution was prepared by removing CaCl2 from the Tyrode’s solution. The Kreb’s solution used for cell storage contained (mM): 70 glutamic acid, 30 KCl, 15 taurine, 0.5 MgCl2, 10 KH2PO4, 0.5 EGTA, 10 HEPES, 10 glucose, and 1% albumin, pH 7.4 (adjusted with KOH). The enzyme solution used for the rat cardiomyocyte isolation contained 0.08 g/L collagenase (type II) and 1.0 g/L BSA in Kreb’s solution. For action potential recording on cardiomyocyte, the pipette solution contained (mM): 100 potassium aspartate, 30 KCl, 1 MgCl2, 5 Mg-ATP, 5 EGTA, 5 HEPES, pH 7.3 (adjusted with KOH); the Tyrode’s solution was used as the standard bath solution. For whole-cell recording of IKs on myocytes, the pipette solution contained (mM): 125 potassium aspartate, 20 KCl, 1 MgCl2, 5 Mg-ATP, 10 EGTA, 5 HEPES, pH 7.3 (adjusted with KOH); the bath solution contained (mM): 132 NaCl, 4 KCl, 1.8 CaCl2, 1.2 MgCl2, 10 HEPES, 5 glucose, pH 7.4 (adjusted with NaOH). 3 μM nifedipine and 5 μM E-4031 were used to block the calcium current and IKr, respectively. For whole-cell recording on HEK-293 cells, the pipette solution contained (mM): 140 KCl, 2 MgCl2, 10 HEPES, 0.1 EGTA, 4 K2-ATP, pH 7.3 (adjusted with KOH); the bath solution contained (mM): 120 NaCl, 5 KCl, 1.5 CaCl2, 1 MgCl2, 10 HEPES, 10 glucose, pH 7.4 (adjusted with NaOH). For single-channel recording, the pipette solution (extracellular) contained (mM): 145 KCl, 10 HEPES, 10 glucose, pH 7.4 (adjusted with KOH); the bath solution (intracellular) contained (mM): 145 KCl, 1.2 MgCl2, 10 HEPES, 0.1 EGTA, pH 7.38 (adjusted with KOH).
(§4) Cell suspensions were transferred into a chamber on the stage of a Nikon Eclipse Ti inverted microscope (Tokyo, Japan). The whole-cell recordings were performed using isolated single ventricular myocytes. Patch electrodes were pulled from a horizontal microelectrode puller (P-1000, Sutter Instrument Co, USA) and fire polished to final tip resistance of 4.0–8.0 MΩ when filled with internal solutions. Signals were amplified with an Axopatch 200B amplifier (Axon Instruments, USA) and filtered at 1 kHz. The pCLAMP 9.0 software was used to generate current and voltage clamp protocols, acquire data, and analyse the current traces. The whole-cell series resistance was compensated to more than 80%. All of the experiments were performed at room temperature (22 ± 1 °C). The whole-cell IK1 was elicited by a ramp voltage protocol from −140 to + 40 mV in 1 s, or at a 0 mV holding potential to test potentials from −140 to + 40 mV in 10 mV increments. The IK1 was calculated as the difference between the peak inward current and the holding current level. The whole-cell Kv7.1/IKs were elicited from a −30 mV holding potential to test potentials from −80 to + 40 mV in 10 mV increments.
(§5) Human Kir2.1 cDNA, Kir2.3 cDNA, Kv7.1 cDNA and KCNE1 cDNA, was cloned in Human Embryonic Kidney 293 cells, respectively. In some cases, Kv7.1 cDNA and KCNE1 cDNA were simultaneously cloned in Human Embryonic Kidney 293 cells.

[3] = target: T3, IKs channels (KCNQ and KCNE) (Homo sapiens, UniProt P51787); assay: Whole-cell patch clamp of IKs currents (Kv7.1 + KCNE1, voltage steps) in transfected HEK293 cells
T3 construct: expressed in transfected cells; host or cells: HEK293
Procedure: as §3, §4, §5

rat ventricular myocytes = assay: Action potential recording on isolated rat ventricular myocytes; conditions: isoproterenol 10 nM, comparing with control
Procedure: as §3
Single ventricular myocytes were isolated from adult rat hearts via enzymatic dissociation as previously described. Briefly, the rats were anesthetised with 25% chloral hydrate (0.1 g/100 g). Their hearts were excised rapidly and retrogradely perfused on a Langendorff apparatus with a Ca^2+-free Tyrode’s solution for 5 min before the perfusate was switched to an enzymatic solution for 10–20 min. The perfusate was finally changed to Kreb’s solution for 5 min. The perfusates were bubbled with 95% O2 + 5% CO2 and maintained at 37 °C. The ventricles w ere cut into small chunks and gently agitated in Kreb’s solution. The cells were filtered through nylon mesh (pore size 200 μm) and stored in Kreb’s solution at 4 °C.
Action potentials were elicited at 1 Hz by 2 ms current pulses applied using the patch pipette.
as §4

IKs = target: T4, IKs (Rattus norvegicus, UniProt Q9Z0N7); assay: Whole-cell recording of IKs on rat ventricular myocytes; conditions: forskolin alone
T4 construct: endogenous in cells; host or cells: isolated adult rat ventricular myocytes
Procedure: as §1
Cell suspensions were transferred into a chamber on the stage of a Nikon Eclipse Ti inverted microscope (Tokyo, Japan). […] The IK1 was calculated as the difference between the peak inward current and the holding current level. […]

Q: Which results are given for `CCS(=O)(=O)N(C)[C@H]1c2cc(C#N)ccc2OC(C)(C)[C@@H]1O` [293B]?
A: open probability of Kv7.1 channel (Kv7.1 [1]): further abolished; open probability of IKs channel (IKs channel): further abolished

Q: With “8-Bromoadenosine-3′, 5′-cyclic monophosphorothioate [8-Br-cAMP]” as the molecule, how does the “effect on Kv7.1 current” value (Kv7.1 [2]) read?
A: significantly enhanced

Q: What does the source list for `O=C(O)[C@H]1O[C@@H](Oc2cc3oc(-c4ccccc4)cc(=O)c3c(O)c2O)[C@H](O)[C@@H](O)[C@@H]1O` [Baicalin]?
A: maximal increased effect upon IKs currents ([3]; HEK293): 57.32 ± 3.07%; saturation dosage, enhancement of IKs ([3]; HEK293): 1 mM; EC50 ([3]; at the peak currents, non-linear Hill fit, read-out: EC50, enhancement of IKs currents): 138 µM; Hill coefficient, enhancement of IKs ([3]; non-linear Hill fit): 0.993

Q: Which “effect on APD of rat ventricles” value (rat ventricular myocytes) does the source give for `CC(C)NCC(O)c1ccc(O)c(O)c1` (centres unmarked) [Isoproterenol] here?
A: significantly shortened

Q: And the “effect on Kv7.1 current” value (Kv7.1 [2])?
A: significantly enhanced

Q: `C=C[C@@]1(C)CC(=O)[C@]2(O)[C@@]3(C)[C@@H](O)CCC(C)(C)[C@@H]3[C@H](O)[C@H](OC(C)=O)[C@@]2(C)O1` [Forskolin] was tested. Which “effect on Kv7.1 current” value (Kv7.1 [2]) did it give?
A: significantly enhanced

Q: What about the “effect on IKs current in rat cardiac myocytes” value (IKs) of the same molecule?
A: significantly enhanced
